Test results: patent US20220387552A1, “METHODS OF MODULATING HAIR FOLLICLE STEM CELL QUIESCENCE BY MODULATING DERMAL NICHE ACTIVATOR GAS6” (President and Fellows of Harvard College, priority 2019, published 2022)
“Also recorded” adds a separate entry of the source.

Legend:
FACS-purified HFSCs = assay: Colony formation assay of cultured HFSCs; type: cell-based, mouse
Procedure: For the isolation of HFSCs, mouse dorsal skin was dissected, and the fat layer was removed using a surgical scalpel. The skin was incubated in trypsin-EDTA at 37° C. for 35-45 min on an orbital shaker. Single-cell suspension was obtained by scraping the epidermal side and filtering. Cells were centrifuged for 8 min at 350 g at 4° C., resuspended in 5% fetal bovine serum, and stained for 30-40 min. The following antibodies were used: CD49f (Integrin alpha 6)-PE (eBioscience, 12-0495-82; 1:500); CD34-eFlour660 (eBioscience, 50-0341-82; 1:100); Sca-1-PerCP-Cy5.5 (eBioscience, 45-5981-82; 1:1000); and CD45-eFlour450 (eBioscience, 48-0451-82; 1:250). The HFSCs were isolated as CD45^−, Integrin alpha 6^+, CD34^+, Sca-1^− cells.
FACS-purified HFSCs were plated on mitomycin C (P212121, Cat #M92010)-treated J2 fibroblast feeders at a density of 10,000 cells/well of 12-well plates, in E media supplemented with 15% (v/v) serum and 0.3 mM calcium as described in previous studies^78,79. For Gas6-treatment, E medium was supplemented with recombinant mouse Gas6 protein (R&D systems, Cat #8310-GS) at 500 ng/ml. For R428-treatment experiments, E medium was supplemented with R428 (APExBIO, Cat #A8329) at 1 μM. Cells were fixed and stained with 1% (wt/vol) Rhodamine B (Millipore Sigma, R6626). Colony diameter was measured from scanned images of plates using Image J.

ADX mice [1] = assay: Hair cycle progression of ADX mice treated topically with R428; type: in vivo; conditions: R428 2 mM in ethanol, topical once a day, back skin of ADX mice
Procedure: (§1) C57BL/6J mice were anesthetized. Small incisions were made on the back skin right on top of each adrenal gland. Both adrenal glands were removed with a pair of curved forceps. Sham-operated mice (Sham) underwent the same procedures as the ADX mice, except their adrenal glands were not removed.
RU486 (TCI America, Cat #M1732; 4% in ethanol) was used to induce K15-CrePGR by topical application for 10-14 days. To induce Pdgfra-CreER and Sox2-CreER, tamoxifen (Millipore Sigma, T5648; 20 mg/kg) was injected into mice intraperitoneally once per day for 4 to 6 days. To inhibit AXL activity, R428 (APExBIO, A8329; 2 mM in ethanol) was applied to ADX mice topically once a day. EdU (Lumiprobe Corporation, Cat #10540; 25 mg/kg) were administered by intraperitoneal injections. AAVs were produced as described previously^46 and injected directly into dermis through intradermal injections. 2-month-old C57BL/6J mice were injected with AAV-GFP or AAV-Gas6 (1×10^11 genome copy number per animal).
The hair cycle progression was documented by standardized photographs at the start of each experiment and weekly thereafter. Anagen was determined by darkening of the skin followed by hair growth as previously described^75. The back skin of mice was shaved with an electric clipper to reveal skin colour changes and hair coat recovery. […] Telogen length was quantified as described previously^19.

ADX mice [2] = assay: Hair cycle progression of ADX mice fed corticosterone in drinking water; type: in vivo; conditions: 35 μg/ml corticosterone in drinking water
Procedure: as §1
The hair cycle progression was documented by standardized photographs at the start of each experiment and weekly thereafter. Anagen was determined by darkening of the skin followed by hair growth as previously described^75. The back skin of mice was shaved with an electric clipper to reveal skin colour changes and hair coat recovery. Once the hair coat recovery reached ˜90% of the back skin, the mice were shaved again to monitor the entry into next anagen. Telogen length was quantified as described previously^19.
Control animals received the vehicle water.

C57BL/6 mice = assay: Hair cycle progression of C57BL/6 mice under chronic corticosterone feeding; type: in vivo; conditions: wild-type mice, supplemental corticosterone in drinking water from second telogen; vehicle mice entered anagen around P90-P100
Procedure: The hair cycle progression was documented by standardized photographs at the start of each experiment and weekly thereafter. Anagen was determined by darkening of the skin followed by hair growth as previously described^75. The back skin of mice was shaved with an electric clipper to reveal skin colour changes and hair coat recovery. Once the hair coat recovery reached ˜90% of the back skin, the mice were shaved again to monitor the entry into next anagen. Telogen length was quantified as described previously^19. 35 μg/ml Corticosterone (Millipore Sigma, C2505) was dissolved in vehicle (0.45% hydroxypropyl-β-cyclodextrine in drinking water) in drinking water during the entire corticosterone feeding period. Corticosterone water was changed every 3 days to prevent degradation. Control animals received the vehicle water.

[3] = Plasma corticosterone levels by ELISA after corticosterone feeding; type: in vivo, mice
Procedure: 35 μg/ml Corticosterone (Millipore Sigma, C2505) was dissolved in vehicle (0.45% hydroxypropyl-β-cyclodextrine in drinking water) in drinking water during the entire corticosterone feeding period. Corticosterone water was changed every 3 days to prevent degradation. Control animals received the vehicle water. Blood corticosterone levels were measured by ELISA (ARBOR assays, [MUT]-H1) according to the manufacturer's instruction. Serum was collected using the heparinized tubes (Microvette® CB 300 LH or Microvette® 300 LH, Sarstedt) between 10 a.m. and 12 p.m.

hair follicle = conditions: corticosterone feeding mice
Procedure: 35 μg/ml Corticosterone (Millipore Sigma, C2505) was dissolved in vehicle (0.45% hydroxypropyl-β-cyclodextrine in drinking water) in drinking water during the entire corticosterone feeding period. Corticosterone water was changed every 3 days to prevent degradation. Control animals received the vehicle water.
The skin samples were fixed in 4% paraformaldehyde (PFA, Electron Microscopy Sciences, Cat #15713) for 15 min at room temperature, washed in phosphate buffered saline (PBS), immersed in 30% sucrose solution overnight at 4° C., and embedded in optimal cutting temperature compound (Sakura Finetek, Cat #4583). 35 μm thick sections were fixed in 4% PFA. The fixed slides were then blocked in blocking buffer (5% Donkey serum, 1% bovine serum albumin, 2% cold-water fish gelatin in 0.3% Triton X-100 in PBS) for 1 h at room temperature, incubated with primary antibodies overnight at 4° C., and incubated with secondary antibodies for 2-4 h at room temperature. The following antibodies and dilutions were used: CD34 (eBioscience, 14-0341-85, 1:100), P-Cadherin (R&D Systems, AF761, 1:400), GFP (Abcam, ab290, 1:5000) and Cleaved Caspase-3 (Cell Signaling Technology, 1:300). DAPI was used as a counterstain for the nucleus.

Nc1nc(Nc2ccc3c(c2)CC[C@@H](N2CCCC2)CC3)nn1-c1cc2c(nn1)-c1ccccc1CCC2 [R428]
HFSC colony formation (FACS-purified HFSCs; R428 at 1 μM in E medium): inhibited HFSC colony formation
anagen entry / hair growth (hair cycle progression) (ADX mice [1]): suppressed their precocious anagen entry; also recorded: repress the phenotypes of ADX; also recorded: inhibit hair growth

C[C@]12C[C@H](O)[C@H]3[C@@H](CCC4=CC(=O)CC[C@@]43C)[C@@H]1CC[C@@H]2C(=O)CO [corticosterone]
HFSC activation / quiescence (hair cycle progression) (ADX mice [2]): effectively suppressed the aberrant activation of HFSCs; also recorded: suppress the loss of HFSC quiescence of ADX mice
anagen entry (hair cycle progression) (C57BL/6 mice): stayed in telogen
plasma corticosterone levels ([3]; ADX mice, corticosterone in drinking water): restored
corticosterone levels in the circulation ([3]; wild-type mice, supplemental corticosterone in drinking water): enhanced corticosterone levels in the circulation
abnormal cell death in hair follicle (aCAS3) (hair follicle): does not display abnormal cell death

B1: Gas6: recombinant mouse Gas6 protein (R&D systems, Cat #8310-GS); gamma-carboxyglutamic acid-containing secreted protein, AXL ligand (protein, UniProt Q61592 28-674, looked up)
Growth arrest-specific …: VLLRAREAAQFLRPRQRRAYQVFEEAKQGHLERECVEEVCSKEEAREVFENDPETEYFYPRYQECMRKYGRPEEKNPDFAKCVQNLPDQCTPNPCDKKGTHICQDLMGNFFCVCTDGWGGRLCDKDVNECVQKNGGCSQVCHNKPGSFQCACHSGFSLASDGQTCQDIDECTDSDTCGDARCKNLPGSYSCLCDEGYTYSSKEKTCQDVDECQQDRCEQTCVNSPGSYTCHCDGRGGLKLSPDMDTCEDILPCVPFSMAKSVKSLYLGRMFSGTPVIRLRFKRLQPTRLLAEFDFRTFDPEGVLFFAGGRSDSTWIVLGLRAGRLELQLRYNGVGRITSSGPTINHGMWQTISVEELERNLVIKVNKDAVMKIAVAGELFQLERGLYHLNLTVGGIPFKESELVQPINPRLDGCMRSWNWLNGEDSAIQETVKANTKMQCFSVTERGSFFPGNGFATYRLNYTRTSLDVGTETTWEVKVVARIRPATDTGVLLALVGDDDVVPISVALVDYHSTKKLKKQLVVLAVEDVALALMEIKVCDSQEHTVTVSLREGEATLEVDGTKGQSEVSTAQLQERLDTLKTHLQGSVHTYVGGLPEVSVISAPVTAFYRGCMTLEVNGKILDLDTASYKHSDITSHSCPPVEHATP
HFSC colony formation (FACS-purified HFSCs; recombinant mouse Gas6 protein at 500 ng/ml in E medium): formed more colonies
